Results published in patent publication US9992981B2, “Optogenetic control of reward-related behaviors” (The Board of Trustees of the Leland Stanford Junior …, priority 2010, dated 2018).
Where two headings read alike, the source gives them in different places.

What was measured:
MSNs = experiment: IPSCs in MSNs during photostimulation of ChR2-expressing ChAT neurons in acute NAc slices; assay type: cell-based, mice
Description: Coronal cerebral brain slices were prepared from adult mice with virus previously injected (>2 weeks prior to slicing), using standard techniques in strict accordance with a protocol approved by the Animal Care and Use Committee at Stanford University. Coronal slices 250 μm thick were cut with a vibratome using a sapphire blade in ice cold N-methyl-D-glucamine (NMDG)-based cutting solution containing 135 mM NMDG, 1 mM KCl, 1.2 mM KH2PO4, 20 mM choline bicarbonate, 10 mM glucose, 1.5 mM MgCl2 and 0.5 mM CaCl2. Slices were maintained thereafter in artificial cerebral spinal fluid (ACSF) containing 119 mM NaCl, 2.5 mM KCl, 2.5 mM CaCl2, 1.3 mM MgCl2, 1 mM NaH2PO4, 26.2 mM NaHCO3 and 11 mM glucose. Slices were maintained in ACSF at 37° C. for 30 minutes, and thereafter at room temperature. ACSF was bubbled constantly with 95% O2/5% CO2 and heated to 34° C. for all experiments. Neurons were visualized on an upright microscope (Leica DM-LFSA) equipped with both DIC optics and a filter set for visualizing eYFP using a ×40 water-immersion objective and a charge-coupled device (CCD) camera. Whole-cell recordings were made from neurons using the electrode solution containing 120 mM potassium gluconate, 20 mM HEPES, 10 mM EGTA, 1 mM MgCl2, 2 mM Na-ATP, and 0.2 mM Na-GTP (pH 7.3, 290 mOsm/L); in experiments recording IPSCs, KCl was used to replace potassium gluconate. Pipette resistances were 3-5 MΩ, and recordings were made without series resistance compensation. Membrane potentials have been corrected for the error resulting from the liquid junction potentials. The holding potential (VM) for voltage-clamp experiments was −70 mV. […] […] Photocurrents were evoked using an optical switch with a 300W xenon lamp and either a 470±20 nm or a 580±20 nm bandpass filters; light power at the specimen was 11.52 mW mm^−2 (470 nm) or 10.64 mW mm^−2 (580 nm). Currents filtered at 2 kHz, digitized at 50 kHz, and recorded to disk using pClamp10 software (Axon Instruments).

ChAT neurons = experiment: Cocaine response of ChAT cells in slice (spontaneous firing); assay type: cell-based, mice; conditions: 5 μM cocaine bath, at 10 min; baseline 0.60±0.41 Hz; n=7
Description: Coronal cerebral brain slices were prepared from adult mice with virus previously injected (>2 weeks prior to slicing), using standard techniques in strict accordance with a protocol approved by the Animal Care and Use Committee at Stanford University. Coronal slices 250 μm thick were cut with a vibratome using a sapphire blade in ice cold N-methyl-D-glucamine (NMDG)-based cutting solution containing 135 mM NMDG, 1 mM KCl, 1.2 mM KH2PO4, 20 mM choline bicarbonate, 10 mM glucose, 1.5 mM MgCl2 and 0.5 mM CaCl2. Slices were maintained thereafter in artificial cerebral spinal fluid (ACSF) containing 119 mM NaCl, 2.5 mM KCl, 2.5 mM CaCl2, 1.3 mM MgCl2, 1 mM NaH2PO4, 26.2 mM NaHCO3 and 11 mM glucose. Slices were maintained in ACSF at 37° C. for 30 minutes, and thereafter at room temperature. ACSF was bubbled constantly with 95% O2/5% CO2 and heated to 34° C. for all experiments. Neurons were visualized on an upright microscope (Leica DM-LFSA) equipped with both DIC optics and a filter set for visualizing eYFP using a ×40 water-immersion objective and a charge-coupled device (CCD) camera. […] Currents filtered at 2 kHz, digitized at 50 kHz, and recorded to disk using pClamp10 software (Axon Instruments).

[1] = system: ChAT interneurons of the NAc; experiment: Conditioned place preference (CPP); assay type: in vivo, mice
[2] = after 15 minutes, cited from earlier work
[3] = Wavelength sensitivity of identified opsins (Tables 1 and 2); conditions: Table 1, opsins for inhibition

For `Br.COc1ccc(-c2ccc(=N)n(CCCC(=O)O)n2)cc1` [SR-95531], the “effect on light-evoked synaptic currents in MSN” value (MSNs; SR-95531 (5 mM), NBQX and RS-CPP present) was “blocked”.

With `COC(=O)[C@H]1[C@@H](OC(=O)c2ccccc2)C[C@@H]2CC[C@H]1N2C` [cocaine, benzoylmethylecgonine] the “firing rate of ChAT neurons after cocaine” value (ChAT neurons) was 1.74±0.56 Hz, the “Conditioned side (min), total time on cocaine-paired side on testing day” value (shortened to “Conditioned side (min), total time”) ([1]; ChAT::Cre+ (eNphR3.0 inhibition paired with cocaine), 10 mg/kg) was 10.3 min and the “Conditioned side (min), total time” value ([1]; ChAT::Cre+ (eNphR3.0 inhibition paired with cocaine), 20 mg/kg) was 10.7 min. The “Conditioned side (min), total time” value ([1]; ChAT::Cre+ (eNphR3.0 inhibition paired with cocaine), 40 mg/kg) was 10.5 min, the “Conditioned side (min), total time” value ([1]; ChAT::Cre− control littermates, 10 mg/kg) was 8.5 min and the “Conditioned side (min), total time” value ([1]; ChAT::Cre− control littermates, 20 mg/kg) was 14.2 min. For the same molecule, the “Conditioned side (min), total time” value ([1]; ChAT::Cre− control littermates, 40 mg/kg) was 9.2 min, the “cocaine in the brain” value ([2]; i.p. 10 mg/kg) was 4.7 µM and the “cocaine in the brain” value ([2]; i.p. 20 mg/kg) was 9.4 µM.

For `CNC1(C)C2CCC(C2)C1(C)C` (centres unmarked) [mecamylamine], the “IPSC frequency with light and mecamylamine” value (MSNs; 10 μM mecamylamine, light alone raised 3.4+/−1.3 Hz to 10.1+/−1.2 Hz, 470 nm, 10 Hz) was 5.1+/−1.8 Hz and the “effect on light-evoked increase of IPSC frequency” value (MSNs; n=5, P<0.05) was “attenuated”.

B1: BR: opsin for inhibition, biological origin Halobacterium helobium (protein, UniProt P02945 14-262, looked up)
Bacteriorhodopsin: QAQITGRPEWIWLALGTALMGLGTLYFLVKGMGVSDPDAKKFYAITTLVPAIAFTMYLSMLLGYGLTMVPFGGEQNPIYWARYADWLFTTPLLLLDLALLVDADQGTILALVGADGIMIGTGLVGALTKVYSYRFVWWAISTAAMLYILYVLFFGFTSKAESMRPEVASTFKVLRNVTVVLWSAYPVVWLIGSEGAGIVPLNIETLLFMVLDVSAKVGFGLILLRSRAIFGEAEAPEPSAGDGAAATSD
With B1 the “Wavelength Sensitivity (max)” value [3] was 570 nm max.

B2: NpHR: halorhodopsin from Natronomonas pharaonis (protein, UniProt P15647 1-291, looked up)
Halorhodopsin: MTETLPPVTESAVALQAEVTQRELFEFVLNDPLLASSLYINIALAGLSILLFVFMTRGLDDPRAKLIAVSTILVPVVSIASYTGLASGLTISVLEMPAGHFAEGSSVMLGGEEVDGVVTMWGRYLTWALSTPMILLALGLLAGSNATKLFTAITFDIAMCVTGLAAALTTSSHLMRWFWYAISCACFLVVLYILLVEWAQDAKAAGTADMFNTLKLLTVVMWLGYPIVWALGVEGIAVLPVGVTSWGYSFLDIVAKYIFAFLLLNYLTSNESVVSGSILDVPSASGTPADD
For B2, the “Wavelength Sensitivity (max)” value [3] was 589 nm max.
